Drawing on ChEMBL document CHEMBL1144096, “New phenanthrene derivatives from maxillaria densa(1)” (J Nat Prod, 1999), this text covers IC50 for 1 compound.

The subject of this test is Ileum. Nature of the test: Inhibition of rat ileum contraction. Type of test: functional, tissue-based.

As a reminder, the IC50 is the concentration that inhibits the measured activity by half. High values mean weaker potency in that assay, low ones greater potency in that assay. For the compound `COc1ccc(Cc2nccc3cc(OC)c(OC)cc23)cc1OC` [PAPAVERINE], the IC50 turned out to be 1550 nM.
